Like-named read-outs stand apart in the source and are kept apart here.
Tests used:
[1] = tested on: C57BL/6J mice; assay type: in vivo
Protocol: Blood pressure telemetry (FIG. 2) and sleep studies in mice. […] Then blood pressure was measured at baseline (Day 0). The leptin osmotic pump was implanted SC to deliver 120 μg/day of the hormone, which increased leptin levels to 40-50 ng/ml which corresponded to plasma leptin levels in severely obese mice. Blood pressure measured after 2 days of leptin infusion (Day 2) followed by removal of the osmotic pump. On Day 5, the carotid artery bifurcation was exposed and co-assembled FTY720-PA filamentous nanostructures were applied bilaterally (5 μg/side). […] The leptin osmotic pump was reinserted on Day 9 and blood pressure was measured after two days of leptin infusion on Day 11. The pump was removed on Day 12 and reinserted on Day 20 followed by blood pressure measurement on Day 22. […] Leptin increased mean arteria blood pressure by 13±6 mm Hg and this effect was abolished by FTY720. […] Allowing 10% attrition rate, it will require 28 male (14 DIO and 14 lean) and 28 female C57BL/6J mice (14 DIO and 14 lean).

[2] = humans; cited from earlier work
[3] = mice; cited from earlier work
[4] = Maximum solubility at pH 7.4; assay type: physicochemical

Compound | increase of mean arterial blood pressure ([1]; leptin infusion) | half-life [2] | half-life [3] | leptin-induced hypertension ([1]; FTY720 in Matrigel at 0.3 mg/kg/day applied to CB (FIG. 2)) | leptin-induced hypertension ([1]; administered to CB locally) | effect on leptin-induced increase of mean arterial blood pressure ([1]; mouse, in vivo) | solubility [4]
Leptin: hormone delivered by SC osmotic pump to induce hypertension | 13±6 mm Hg | – | – | – | – | – | –
CCCCCCCCc1ccc(CCC(N)(CO)CO)cc1.Cl [FTY720, 2-Amino-2-[2-(4-octyl-phenyl)-ethyl]-propane-1,3-diol hydrochloride] | – | 170 h | 9 h | abolished leptin-induced hypertension | abolished leptin-induced hypertension | abolished | 81 µM

— patent US11229614B2, “Supramolecular hydrogel applications to the carotid bodies to treat hypertension and sleep apnea in obesity” (THE JOHNS HOPKINS UNIVERSITY, priority 2017, dated 2022)
